The source of these data is EPA's ToxValDB 9.5 (doi:10.2903/j.efsa.2016.4416).

Values after ≈ are worked out from the molar mass of the structure shown. A value given as a limit tells only on which side of the number the result lay.

Data set [1] deals with Colinus virginianus.
For data set [2], the system named is Folsomia candida. As to conditions: chronic/long-term; duration: 28 days; mortality.
Data set [3] deals with Oncorhynchus mykiss. As to conditions: for LC50: acute, duration: 96 hours, mortality.
The subject of data set [4] is Neomysis kadiakensis. As to conditions: for LC50: acute, mortality.
Data set [5] deals with Tagia sp. As to conditions: for NOEC: chronic/long-term, duration: 56 days, reproduction.
The test system of data set [6] is Oryctolagus sp. To be noted: developmental; development.
Data set [7] concerns Anas platyrhynchos. To be noted: acute; oral; unspecified; mortality.
Data set [8] has as its system Bibionidae. As to conditions: chronic/long-term; duration: 22 days; other.
Data set [9] has as its system Apis mellifera. To be noted: acute, mortality.
Data set [10] deals with Rattus norvegicus.

Consider `CS(=O)(=O)c1cc(C(F)(F)F)ccc1C(=O)C(C#N)C(=O)C1CC1` (configuration not stated), for which the NOAEL (commonly the highest dose or exposure tested at which no adverse effect was seen) in data set [1] (chronic, reproduction) came out at 25 mg/kg-day. The NOEC in [2] is > 100 mg/kg; in data set [5], 9 mg/kg. Also, the LC50 in data set [3] was > 15 µg/mL; in data set [4] (duration: 48 hours) it was 24 µg/mL (≈ 66.8 µM); in [4] (duration: 96 hours) it was 3.7 µg/mL (≈ 10.3 µM).
Regarding `CS(=O)(=O)c1cc(C(F)(F)F)ccc1C(=O)c1cnoc1C1CC1` [Isoxaflutole], the no observed adverse effect level (NOAEL) in data set [6] was found to be 5 mg/kg-day; in data set [10] (chronic, duration: 2 years, histopathology: nonneoplastic), 2 mg/kg-day; in data set [10] (reproduction developmental, organ weight), 2 mg/kg-day. Also, the LD50 in data set [7] was > 2150 mg/kg-day; in data set [1] (acute, oral, mortality), > 2150 mg/kg-day; in data set [9] (dermal), > 100 µg/piece; in data set [9] (oral, unspecified) it was > 109 µg/piece; in [10] (acute, mortality) it was > 5000 mg/kg. Also, the LC50 in data set [3] was > 1.7 µg/mL; in data set [4] (duration: 48 hours), > 0.077 µg/mL; in [5] (acute, duration: 14 days, mortality), > 500 mg/kg. For the same compound, the NOEC was found to be 0.08 mg/L in data set [3] (chronic/long-term, duration: 28 days, growth); 0.001 mg/L in [4] (chronic/long-term, other); 8.9 mg/kg in data set [5]; 0.1 mg/L in data set [8].
On to `CS(=O)(=O)c1cc(C(F)(F)F)ccc1C(=O)O` [2-Methylsulfonyl-4-trifluoromethylbenzoic acid], for which the NOAEL in data set [10] (subchronic, duration: 90 days, M) worked out at 769 mg/kg-day.
